Values of other authors in patent publication US8557836B2 (priority 2008, dated 2013).

Test system: M2 ion channel with mutations at M2 residues 27, 30, 31, and 34
Details: mutations at M2 residues 27, 30, 31, and 34 in the M2 transmembrane domain; cited from earlier work

C1CCC2(CC1)CCN(C1=NCCN1)CC2 [BL-1743, 3-(4,5-dihydro-1H-imidazol-2-yl)-3-azaspiro[5,5]undecane hydroiodide, reference compound]
resistance to BL-1743 induced by amantadine resistance mutations: complete
